Source: patent US12661345B2, “Compositions for the treatment of hypertension” (The George Institute for Global Health, priority 2017, dated 2026)

Test system: participants with migraine
Assay: Safety: serious adverse events and adverse events of special interest in the 3×3 factorial trial
[1] = Anytime between Week 0 to Week 12, % of participants
[2] = Anytime between Week 0 to Week 12, n/N participants
[3] = Randomization, % of participants
[4] = Randomization, n/N participants

Description: Tolerability: • a. Difference between groups in potentially related side-effects (dizziness, blurred vision, syncope/collapse/fall, ankle edema, skin rash, itching, gout, hyperkalemia, hypokalemia, hyponatremia, myalgia, insomnia, nightmares, rebound hypertension) • b. Difference between groups in participant withdrawals from treatment • 2. Safety: Percentage with any severe adverse event (SAE) • 3.
All participants reported SAEs and adverse events of special interest (AESI) from the time of informed consent until the end of the follow-up period and reported in the case report. AESIs included: • Dizziness • Hypotension • Pedal Edema • Headache • Muscle cramps • Bradycardia • Flushing • Hypersensitivity reactions (skin rashes, itching) • Gastrointestinal complaints • Myalgia • Syncope/Collapse/Fall • Gout • Insomnia • Nightmares • Rebound hypertension • Chest tightness/pain • Tremor/shaking • Irregular heartbeat/tachycardia Statistical Methods Statistical & Analytical Plans

## CC(C)NCC(O)COc1cccc2ccccc12 (stereo not shown) [Propranolol, propranolol]
12 weeks
  Subjects with any serious adverse event (SAE) in 12 weeks (n/N): 0/10
  Subjects with any serious adverse event (SAE) in 12 weeks (percent): 0.0%
[1]
  Any SAEs: (0.0%)
  Bradycardia: (10.0%)
  Falls: (0.0%)
  Flushing: (0.0%)
  Gastrointestinal complaints: (30.0%)
  Gout: (0.0%)
  Headache: (90.0%)
  Insomnia: (40.0%)
  Muscle cramps: (30.0%)
  Myalgia: (20.0%)
  Nightmares: (10.0%)
  Pedal edema: (0.0%)
  Syncope: (10.0%)
[2]
  Any SAEs: 0/10
  Bradycardia: 1/10
  Falls: 0/10
  Flushing: 0/10
  Gastrointestinal complaints: 3/10
  Gout: 0/10
  Headache: 9/10
  Insomnia: 4/10
  Muscle cramps: 3/10
  Myalgia: 2/10
  Nightmares: 1/10
  Pedal edema: 0/10
  Syncope: 1/10
[3]
  Any SAEs since the last visit?: (0.0%)
  Bradycardia: (0.0%)
  Falls: (0.0%)
  Flushing: (10.0%)
  Gastrointestinal complaints: (0.0%)
  Gout: (0.0%)
  Headache: (100.0%)
  Insomnia: (0.0%)
  Muscle cramps: (0.0%)
  Myalgia: (0.0%)
  Nightmares: (0.0%)
  Pedal edema: (0.0%)
  Syncope: (0.0%)
[4]
  Any SAEs since the last visit?: 0/10
  Bradycardia: 0/10
  Falls: 0/10
  Flushing: 1/10
  Gastrointestinal complaints: 0/10
  Gout: 0/10
  Headache: 10/10
  Insomnia: 0/10
  Muscle cramps: 0/10
  Myalgia: 0/10
  Nightmares: 0/10
  Pedal edema: 0/10
  Syncope: 0/10
Week 4, % of participants
  Any SAEs since the last visit?: (0.0%)
  Bradycardia: (0.0%)
  Falls: (0.0%)
  Flushing: (0.0%)
  Gastrointestinal complaints: (20.0%)
  Gout: (0.0%)
  Headache: (90.0%)
  Insomnia: (20.0%)
  Muscle cramps: (10.0%)
  Myalgia: (10.0%)
  Nightmares: (0.0%)
  Pedal edema: (0.0%)
  Syncope: (0.0%)
Week 4, n/N participants
  Any SAEs since the last visit?: 0/10
  Bradycardia: 0/10
  Falls: 0/10
  Flushing: 0/10
  Gastrointestinal complaints: 2/10
  Gout: 0/10
  Headache: 9/10
  Insomnia: 2/10
  Muscle cramps: 1/10
  Myalgia: 1/10
  Nightmares: 0/10
  Pedal edema: 0/10
  Syncope: 0/10
Week 8, % of participants
  Any SAEs since the last visit?: (0.0%)
  Bradycardia: (0.0%)
  Falls: (0.0%)
  Flushing: (0.0%)
  Gastrointestinal complaints: (0.0%)
  Gout: (0.0%)
  Headache: (80.0%)
  Insomnia: (30.0%)
  Muscle cramps: (0.0%)
  Myalgia: (10.0%)
  Nightmares: (0.0%)
  Pedal edema: (0.0%)
  Syncope: (0.0%)
Week 8, n/N participants
  Any SAEs since the last visit?: 0/10
  Bradycardia: 0/10
  Falls: 0/10
  Flushing: 0/10
  Gastrointestinal complaints: 0/10
  Gout: 0/10
  Headache: 8/10
  Insomnia: 3/10
  Muscle cramps: 0/10
  Myalgia: 1/10
  Nightmares: 0/10
  Pedal edema: 0/10
  Syncope: 0/10
Week 12, % of participants
  Any SAEs since the last visit?: (0.0%)
  Bradycardia: (10.0%)
  Falls: (0.0%)
  Flushing: (0.0%)
  Gastrointestinal complaints: (10.0%)
  Gout: (0.0%)
  Headache: (80.0%)
  Insomnia: (20.0%)
  Muscle cramps: (20.0%)
  Myalgia: (0.0%)
  Nightmares: (10.0%)
  Pedal edema: (0.0%)
  Syncope: (10.0%)
Week 12, n/N participants
  Any SAEs since the last visit?: 0/10
  Bradycardia: 1/10
  Falls: 0/10
  Flushing: 0/10
  Gastrointestinal complaints: 1/10
  Gout: 0/10
  Headache: 8/10
  Insomnia: 2/10
  Muscle cramps: 2/10
  Myalgia: 0/10
  Nightmares: 1/10
  Pedal edema: 0/10
  Syncope: 1/10
Week 13, % of participants
  Any SAEs since the last visit?: (0.0%)
  Bradycardia: (0.0%)
  Falls: (0.0%)
  Flushing: (0.0%)
  Gastrointestinal complaints: (20.0%)
  Gout: (0.0%)
  Headache: (90.0%)
  Insomnia: (0.0%)
  Muscle cramps: (20.0%)
  Myalgia: (20.0%)
  Nightmares: (0.0%)
  Pedal edema: (10.0%)
  Rebound hypertension: (0.0%)
  Syncope: (0.0%)
Week 13, n/N participants
  Any SAEs since the last visit?: 0/10
  Bradycardia: 0/10
  Falls: 0/10
  Flushing: 0/10
  Gastrointestinal complaints: 2/10
  Gout: 0/10
  Headache: 9/10
  Insomnia: 0/10
  Muscle cramps: 2/10
  Myalgia: 2/10
  Nightmares: 0/10
  Pedal edema: 1/10
  Rebound hypertension: 0/10
  Syncope: 0/10
Week 16, % of participants
  Any SAEs since the last visit?: (0.0%)
  Bradycardia: (0.0%)
  Falls: (0.0%)
  Flushing: (0.0%)
  Gastrointestinal complaints: (0.0%)
  Gout: (0.0%)
  Headache: (100.0%)
  Insomnia: (0.0%)
  Irregular heartbeat/tachycardia: (10.0%)
  Muscle cramps: (10.0%)
  Myalgia: (0.0%)
  Nightmares: (0.0%)
  Pedal edema: (0.0%)
  Rebound hypertension: (20.0%)
  Syncope: (0.0%)
Week 16, n/N participants
  Any SAEs since the last visit?: 0/10
  Bradycardia: 0/10
  Falls: 0/10
  Flushing: 0/10
  Gastrointestinal complaints: 0/10
  Gout: 0/10
  Headache: 10/10
  Insomnia: 0/10
  Irregular heartbeat/tachycardia: 1/10
  Muscle cramps: 1/10
  Myalgia: 0/10
  Nightmares: 0/10
  Pedal edema: 0/10
  Rebound hypertension: 2/10
  Syncope: 0/10
